The term CC50 denotes the concentration giving 50% cytotoxicity. Read a low CC50 as greater toxicity to the cells.

≈ marks a conversion by molar mass, not a printed value. Like-named read-outs stand apart in the source and are kept apart here.

Data set [1] relates to BVDV. Kind of data set: microbe, parasite or virus in culture. The settings on record: Bovine viral diarrhea virus isolates and strains, MDBK, in Bos taurus. The data set is classed as cell-based, bovine diarrheal virus (BVDV).
The nature of data set [2]: in vitro. The note with it: bovine, mdbk cells.
Data set [3] concerns influenza A/Kawasaki (A/KAW H1N1). Nature of the data set: Antiviral plaque assay, A/KAW H1N1. The settings on record: MDCK cells. The protocol:
(§1) The in vitro anti-influenza activities of COMPOUND A, COMPOUND B, COMPOUND C and amantadine were evaluated using a standard plaque assay such as described in Hayden et al., Antimicrob. Agents Chemother., vol. 17, pages 865-870, (1980), herein incorporated by reference. In this assay, influenza virus-infected Madin Darby canine kidney (MDCK) cells were untreated or treated with serial dilutions of each compound. The concentration of compound required to inhibit viral plaque formation by 50% (IC50) was determined from the linear regression line of the plot of compound concentration versus percent inhibition of plaque formation. In addition, the IC50 can be determined by the method of Reed and Muench, Am. J. Hyg, vol. 27, 493-497 (1938) which is herein incorporated by reference.

Data set [4] relates to A/NWS H1N1. Kind of data set: Antiviral plaque assay, A/NWS H1N1. The note with it: MDCK cells. The protocol:
as §1

Data set [5] has as its system A/FM/1/47 H1N1. Kind of data set: Antiviral plaque assay, A/FM/1/47 H1N1. The settings on record: MDCK cells. The protocol:
as §1

For data set [6], the system named is A/AA H2N2. Nature of the data set: microbe, parasite or virus in culture. The note with it: H2N2, MDCK.
Data set [7] has as its system A/AICHI H3N2. Kind of data set: Antiviral plaque assay, A/AICHI H3N2. The note with it: MDCK cells. The protocol: as §1
The subject of data set [8] is B/Lee. Nature of the data set: Antiviral plaque assay, B/Lee. The data set is classed as cell-based. The settings on record: Influenza B virus, MDCK cells. The protocol:
as §1

Data set [9] relates to B/Maryland. Kind of data set: Antiviral plaque assay, B/Maryland. The data set is classed as cell-based. The note with it: Influenza B virus, MDCK cells. The protocol:
as §1

Data set [10] relates to B/GL. Kind of data set: Antiviral plaque assay, B/GL. It is filed as cell-based. The note with it: Influenza B virus, MDCK cells. The protocol: as §1
Data set [11] has as its system M2 ion channel. The note with it: influenza A; cited from earlier work.
The subject of data set [12] is HA of A/Kawasaki/86.
The test system of data set [13] is HA of A/WSN/33.
Data set [14] deals with infectious virions. On the set-up: species or system influenza virus.
The subject of data set [15] is influenza A/WSN/33.
[16] abbreviates: read-out: IC50 (virus replication inhibited by 50%).

As to `COC(=O)[C@@]1(C)CCC[C@@]2(C)C1=CC(=NO)c1ccc(OC)cc12` [J], the values for the IC50 in data set [1] (read-out: IC50) and in [1] (setting [16]) were 8.9 µg/mL (≈ 27 µM) and 5.25 µg/mL (≈ 15.9 µM), respectively. For the same compound, the CC50 in data set [2] was determined as 30.8 µg/mL (≈ 93.4 µM).
For `O=C(O)CCC1(c2ccccc2)CCCCC1` [COMPOUND C], the IC50 in [3] was 0.07 µg/mL (≈ 0.301 µM); in data set [4], > 10 µg/mL; in data set [5], 0.15 µg/mL (≈ 0.646 µM); in data set [6], 0.069 µg/mL (≈ 0.297 µM); in data set [7] it was ~10 µg/mL (≈ 43 µM); in data set [8], > 10 µg/mL. Besides, the IC50 is 6.34 µg/mL (≈ 27.3 µM) in data set [9] and > 10 µg/mL in [10].
As for `COC(=O)C1(C)CCCC2(C)c3ccccc3C(=O)CC12` (centres unmarked) [K], the IC50 in [1] (read-out: IC50) was 51 µg/mL (≈ 178 µM); in data set [1] (setting [16]) it was 15 µg/mL (≈ 52.3 µM). In addition, the CC50 in data set [2] was > 100 µg/mL.
Regarding `NC12CC3CC(CC(C3)C1)C2` [Amantadine, amantadine, reference compound], the IC50 in data set [3] is 0.036 µg/mL (≈ 0.238 µM); in [4], > 10 µg/mL; in [5], 0.13 µg/mL (≈ 0.859 µM); in [6], 0.037 µg/mL (≈ 0.245 µM); in [7], 0.076 µg/mL (≈ 0.502 µM); in data set [8] it was > 10 µg/mL. Also, the IC50 in data set [9] and in data set [10] was > 10 µg/mL in each case. In addition, in data set [11], the “function of the M2 ion channel activity” value is “inhibiting the function of the M2 ion channel activity”.
Regarding `CC(N)C12CC3CC(CC(C3)C1)C2` (centres unmarked) [rimantadine], in data set [11], the “function of the M2 ion channel activity” value was “inhibiting the function of the M2 ion channel activity”.
With `COC(=O)[C@@]1(C)CCC[C@]2(C)c3cc(OC)ccc3C(=O)C[C@@H]12` [COMPOUND A], the IC50 in data set [3] was < 0.032 µg/mL; in data set [4] it was > 10 µg/mL; in [5], < 0.032 µg/mL; in data set [6] it was < 0.032 µg/mL; in data set [7] it was ~10 µg/mL (≈ 31.6 µM); in data set [8] it was ~1.23 µg/mL (≈ 3.89 µM). Further, the IC50 in [9] was ~2.7 µg/mL (≈ 8.53 µM); in [10], 5.65 µg/mL (≈ 17.9 µM); in data set [1] (read-out: IC50), 13.5 µg/mL (≈ 42.6 µM); in data set [1] (setting [16]), 3.56 µg/mL (≈ 11.3 µM); in [1] (read-out: concentration inhibiting replication by 50%) it was 3.5 µg/mL (≈ 11.1 µM). Besides, the “effect on expression of HA on the infected cell surface (erythrocyte binding)” value in [12] was “no effect”. The “low pH-induced fusion of MDCK cells with human erythrocytes” value in data set [12] (pH 4.8) is “inhibition of the low pH-induced fusion”. The “effect on fusion of human erythrocytes with A/WSN/33-infected MDCK cells” value in data set [13] is given as “no effect”. For the same compound, in data set [14], the “antiviral activity after pre-incubation with infectious virions” value was “inactive”. For the same compound, in data set [1] (read-out: concentration inhibiting replication by 90%), the IC90 came out at 13.4 µg/mL (≈ 42.4 µM). Also, the “susceptibility of A/WSN/33” value in [15] is reported as “naturally resistant”. The compound also displayed a CC50 in data set [2] of 51.8 µg/mL (≈ 164 µM).
As to `O=C(NCC(c1ccccc1)c1ccncc1)Nc1ccccc1Cl` (centres unmarked) [COMPOUND B], the IC50 in data set [3] is 0.024 µg/mL (≈ 0.0682 µM); in [4], ~9.59 µg/mL (≈ 27.3 µM); in data set [5], 0.18 µg/mL (≈ 0.512 µM); in data set [6] it was 0.15 µg/mL (≈ 0.426 µM); in [7], ~7.26 µg/mL (≈ 20.6 µM); in data set [8], ~1.08 µg/mL (≈ 3.07 µM). The IC50 was ~2.23 µg/mL (≈ 6.34 µM) in [9] and 2.83 µg/mL (≈ 8.04 µM) in [10].
As to `COC(=O)C1(C)CCCC2(C)c3ccc(O)cc3C(=O)CC12` (centres unmarked) [Compound I], the IC50 was 16 µg/mL (≈ 53 µM) in data set [1] (read-out: IC50) and 4.94 µg/mL (≈ 16.3 µM) in data set [1] (setting [16]). In addition, the CC50 in [2] is 32 µg/mL (≈ 106 µM).
